Source: patent US12403117B2, “Stable pharmaceutical composition containing non-steroidal anti-inflammatory drug derivative” (ZHEJIANG YUEJIA PHARMACEUTICALS CO., LTD, priority 2017, dated 2025)
Values joined by “and” are separate entries in the source; they are usually repeats but may differ in a detail not shown here. Equal entries are not always repeated.

Tests used:
Format in all cases: physicochemical
[1] = Repose angle by injection method
From the text: The “repose angle” formed by stacking the powders or particles reflects its fluidity. The term “repose angle” generally refers to the maximum angle formed by the free slope of the layer of the stacked powders or particles and the horizontal plane. The smaller the repose angle, the smaller the friction between the powders or particles, and the better the fluidity. Better fluidity is more convenient for dissolution and use of the powders or particles. Methods for measuring the repose angle are well known to those skilled in the art. The repose angle is measured by an “injection method” in the examples of the invention, that is, the particles flow out of the funnel and fall on the plane to form a cone, and the base angle is the repose angle.

[2] = Stability of aqueous solution of 2-(diethylamino)-ethyl-2-(4-isobutylphenyl) propionate hydrochloride at 25° C.±2° C. (HPLC); conditions: 10 g in 50 mL sterile water
Procedure: 10 g of 2-(diethylamino)-ethyl-2-(4-isobutylphenyl) propionate hydrochloride prepared in Example 5 was dissolved in 50 mL of sterile water and placed at 25° C.±2° C. Samples were taken on day 0, week 1, week 2, week 3 and week 4 to detect the contents of the main drug and specific impurities (ibuprofen), wherein the content of the main drug and specific impurities were detected by high-performance liquid chromatography (area normalization). The conditions of HPLC were as follows: • Column: Inertsil ODS-3 (250×4.6 mm, 5 μm) or equivalent • Flow rate: 1.0 ml/min • Column temperature: 33° C. • Wavelength: 264 nm • Injection volume: 10 μl • Mobile phase: (3.065 g sodium acetate+150 ml acetic acid+375 ml water): acetonitrile (35:65).

Dissociation constant = test: Dissociation constant
From the text: (§1) The physical and chemical properties of the synthesized crystals of 2-(diethylamino)-ethyl-2-acetoxybenzoate hydrochloride are shown in Table 1.

[3] = Solubility (physical and chemical properties, Table 1)
From the text: as §1

[4] = Acidity: pH value of the aqueous solution; conditions: 25 ± 0.5° C.
[5] = Stability of aqueous solution of 2-(diethylamino)-ethyl-2-acetoxybenzoate hydrochloride at 2-8° C. (HPLC); conditions: 5 g in 50 mL sterile water
Procedure: 5 g of 2-(diethylamino)-ethyl-2-acetoxybenzoate hydrochloride prepared in Example 1 was dissolved in 50 mL of sterile water and placed at 2-8° C. Samples were taken on day 0, month 0.5, month 1, month 2 and month 3 to detect the contents of the main drug and specific impurities (salicylic acid-(2-diethylaminoethyl ester) hydrochloride, acetylsalicylic acid, salicylic acid) and related substances, wherein the content of the main drug and specific impurities were detected by high-performance liquid chromatography (external standard method), and the related substances were detected by high-performance liquid chromatography (principal component self-control method without correction factors). The conditions of HPLC were as follows: • Column: Inertsil ODS-3 (250×4.6 mm, 5 μm) or equivalent • Flow rate: 1.0 ml/min • Column temperature: 33° C. • Wavelength: 276 nm, 303 nm • Injection volume: 10 μl • Mobile phase: water (15 ml of triethylamine+3.5 ml of 10% tetrabutylammonium hydroxide, adding water to 1000 ml): methanol: glacial acetic acid (63:27:10).

## CCN(CC)CCOC(=O)C(C)c1ccc(CC(C)C)cc1.Cl (stereo not shown) [2-(diethylamino)-ethyl-2-(4-isobutylphenyl) propionate hydrochloride]
[1]
  Repose angle: 40 °
[2]; week 0
  Ibuprofen (impurity): Not detected
  Main Drug: 100.00%
  Unknown peak: Not detected
[2]; week 1
  Ibuprofen (impurity): 0.39%
  Main Drug: 99.51%
  Unknown peak: 0.10%
[2]; week 2
  Ibuprofen (impurity): 1.69%
  Main Drug: 98.12%
  Unknown peak: 0.19%
[2]; week 3
  Ibuprofen (impurity): 4.04%
  Main Drug: 95.83%
  Unknown peak: 0.13%
[2]; week 4
  Unknown peak: 0.21%

## CCN(CC)CCOC(=O)c1ccccc1OC(C)=O.Cl [2-(diethylamino)-ethyl-2-acetoxybenzoate hydrochloride]
Dissociation constant
  Dissociation constant: 8.82
[1]
  Repose angle: 42°
[3]; in acetone
  Solubility: slightly soluble
[3]; in ethyl acetate and ether
  Solubility: insoluble
[3]; in water
  Solubility: extremely soluble
[4]
  Acidity: pH value of the 2% aqueous solution: product at 25 ± 0.5 °C is 4.0-6.0
[5]; month 0
  Main Drug: 99.48%
  Salicylic acid (impurity): 0.0028%
  Salicylic acid-(2-diethylaminoethyl ester) hydrochloride (impurity): 0.51%
[5]; month 0.5
  Main Drug: 99.32%
  Salicylic acid (impurity): 0.0035%
  Salicylic acid-(2-diethylaminoethyl ester) hydrochloride (impurity): 0.67%
[5]; month 1
  Acetylsalicylic acid (impurity): 0.018%
  Main Drug: 97.59%
  Salicylic acid (impurity): 0.0044%
  Salicylic acid-(2-diethylaminoethyl ester) hydrochloride (impurity): 2.38%
[5]; month 2
  Acetylsalicylic acid (impurity): 0.033%
  Main Drug: 94.86%
  Salicylic acid (impurity): 0.012%
  Salicylic acid-(2-diethylaminoethyl ester) hydrochloride (impurity): 5.09%
[5]; month 3
  Acetylsalicylic acid (impurity): 0.042%
  Salicylic acid (impurity): 0.049%
[5]; month 3, hydrochloride
  Main Drug: 86% and 86.55%
